Earlier results on five compounds are cited in patent EP3173421A1, “PEPTIDIC COMPOUNDS USEFUL AS ANTIBACTERIAL AGENTS” (Universitat de Barcelona, priority 2015, dated 2017).

Where a SMILES comes first, the peptide text is derived from it. Bridges are numbered along the chain shown (N, C = ends). Where no end group is shown, it is not given here. [ ]: non-standard residue; d: D form. The star is where a group is joined. ξ: configuration not given here. Thr(3ξ) = CC(O)[C@H](N)C(=O)O; Decanoyl = CCCCCCCCCC(=O)*; Nonanoyl = CCCCCCCCC(=O)*; X1 = CC[C@H](C)CCCCC(=O)*; Nle = CCCC[C@H](N)C(=O)O; Dab = NCC[C@H](N)C(=O)O Some results are limits rather than exact numbers.

For data set [1] the following is noted: after 6h; kidneys versus serum; cited from earlier work.
For data set [2], the system named is Pseudomonas aeruginosa ATCC 9027. The note with it: P. aeruginosa ATTC9027 (non-resistant); comparative examples, extracted from Rabanal et al. 2015; cited from earlier work.
The subject of data set [3] is Escherichia coli ATCC 8739. The note with it: E coli ATCC8739 (non-resistant); comparative examples, extracted from Rabanal et al. 2015; cited from earlier work.
The subject of data set [4] is Staphylococcus aureus ATTC6538. The note with it: S. aureus ATTC6538; comparative examples, extracted from Rabanal et al. 2015; cited from earlier work.
A further data set concerns Escherichia coli NDM-1. The note with it: E coli NDM-1; comparative examples, extracted from Rabanal et al. 2015; cited from earlier work.
Data set [5] concerns Pseudomonas aeruginosa 36a. The following applies: P. aeruginosa 36a; comparative examples, extracted from Rabanal et al. 2015; cited from earlier work.
Another data set has as its system Escherichia coli VAL 10. The following applies: E coli VAL10; comparative examples, extracted from Rabanal et al. 2015; cited from earlier work.
In the next data set the test system is Escherichia coli VAL 5. The following applies: E coli VAL 5; comparative examples, extracted from Rabanal et al. 2015; cited from earlier work.
Another data set relates to Escherichia coli MAC21a. The note with it: E coli MAC21 a; comparative examples, extracted from Rabanal et al. 2015; cited from earlier work.
The subject of data set [6] is Pseudomonas aeruginosa 38a. The note with it: P. aeruginosa 38a; comparative examples, extracted from Rabanal et al. 2015; cited from earlier work.

For the compound `CC[C@H](C)CCCCC(=O)N[C@@H](CCN)C(=O)N[C@H](C(=O)N[C@@H](CCN)C(=O)N[C@H]1CCNC(=O)[C@H](C(C)O)NC(=O)[C@H](CCN)NC(=O)[C@H](CCN)NC(=O)[C@H](CC(C)C)NC(=O)[C@@H](Cc2ccccc2)NC(=O)[C@H](CCN)NC1=O)C(C)O` (stereo partly shown) [polymyxin B (8d), Polymyxin B] (X1-[Dab][Thr(3ξ)][Dab][Dab][Dab][dF]L[Dab][Dab][Thr(3ξ)]; lactam 4-C), in [1], the “concentration in kidneys as multiple of the serum concentration” value is on record as “more than 30”.
As for “Nonanoyl-[Dab]T[Dab]C[Dab][dF]L[Dab][Dab]C (cysteine pairing not given here) [Comparative Example 8a]”, the minimum inhibitory concentration (MIC) was 8 µg/mL in data set [2], 4 µg/mL in [3] and over 32 µg/mL in data set [4].
Consider “polymyxin E (colistin) [polymyxin E (colistin) (8e)]”, for which the MIC in the data set on Escherichia coli NDM-1 is 0.5 µg/mL; in [2] it was 1 µg/mL; in data set [5] it was 1 µg/mL; with Escherichia coli VAL 10, 0.5 µg/mL; with Escherichia coli VAL 5 it was 0.25 µg/mL; in the data set on Escherichia coli MAC21a, 0.25 µg/mL. Moreover, the MIC in data set [6] is 1 µg/mL.
As for “Decanoyl-[Dab]T[Dab]C[Dab][dF]L[Dab][Dab][dC] (cysteine pairing not given here) [Comparative Example 8b]”, the MIC was 4 µg/mL in data set [2], 2 µg/mL in data set [3] and 8 µg/mL in data set [4].
In the case of “Decanoyl-[Dab]T[Dab]C[Dab][dF][Nle][Dab][Dab][dC] (cysteine pairing not given here) [Comparative Example 8c]”, the MIC is 0.5 µg/mL in the data set on Escherichia coli NDM-1; 1 µg/mL in [2]; 0.5 µg/mL in the data set with Escherichia coli VAL 10; 0.5 µg/mL in the data set on Escherichia coli VAL 5; 2 µg/mL in data set [3]; 0.5 µg/mL in the data set on Escherichia coli MAC21a. Further, the minimal inhibitory concentration (MIC) is 0.5 µg/mL in data set [6] and 4 µg/mL in [4].
